From patent publication US11292791B2 (priority 2017, dated 2022) come the findings set out here.

As a reminder, the IC50 is the concentration needed to halve the response being measured.

The target in this experiment is BRD4 (Homo sapiens (Human), UniProt O60885). The following applies: read-out: BRD4 IC50 (μM gmean).
Regarding `COC(=O)N1c2ccc3c(nc(CCn4cccn4)n3CC(=O)NCC#N)c2CC[C@@H]1C` [Example 366], the IC50 lay in the range of 1 to 1000 µM.
The value for `COC(=O)N1c2ccc3c(nc(CCn4cccn4)n3CC(=O)NCc3ccno3)c2CC[C@@H]1C` [Example 367] was 1 to 1000 µM; that for `COC(=O)N1c2ccc3c(nc(CCn4cccn4)n3CC(=O)N3CC[C@@H](NC(C)=O)C3)c2CC[C@@H]1C` [Example 370] was 1 to 1000 µM.
Regarding `COC(=O)N1c2ccc3c(nc(CCn4cccn4)n3CC(=O)NCc3ncnn3C)c2CC[C@@H]1C` [Example 371], the IC50 fell in the range of 1 to 1000 µM.
The figure for `COC(=O)N1c2ccc3c(nc(CCn4ccccc4=O)n3CC(=O)NCc3ncnn3C)c2CC[C@@H]1C` [Example 372] is 1 to 1000 µM.
The value for `COC(=O)N1c2ccc3c(nc(CCn4ccccc4=O)n3CC(=O)NCc3ccncn3)c2CC[C@@H]1C` [Example 373] was 1 to 1000 µM; that for `COC(=O)N1c2ccc3c(nc(CCn4ccccc4=O)n3CC(=O)NCCc3ccccn3)c2CC[C@@H]1C` [Example 374] was 1 to 1000 µM.
On to `COC(=O)N1c2ccc3c(nc(CCn4ccccc4=O)n3CC(=O)NCc3cccnc3)c2CC[C@@H]1C` [Example 375], for which the IC50 was 1 to 1000 µM.
With `COC(=O)N1c2ccc3c(nc(CCn4ccccc4=O)n3CC(=O)NC[C@H]3CCCO3)c2CC[C@@H]1C` [Example 376], the IC50 fell in the range of 1 to 1000 µM.
In the case of `COC(=O)N1c2ccc3c(nc(CCn4ccccc4=O)n3CC(=O)N[C@H]3CC[C@H](CO)CC3)c2CC[C@@H]1C` [Example 377], the half-maximal inhibitory concentration (IC50) was 1 to 1000 µM.
Take `COC(=O)N1c2ccc3c(nc(CCn4ccccc4=O)n3CC(=O)N[C@H](C)CO)c2CC[C@@H]1C` [Example 378]: the IC50 fell in the range of 1 to 1000 µM.
The value for `COC(=O)N1c2ccc3c(nc(CCn4ccccc4=O)n3CC(=O)N(C)CCO)c2CC[C@@H]1C` [Example 379] was 1 to 1000 µM; that for `COC(=O)N1c2ccc3c(nc(CCn4ccccc4=O)n3CC(=O)N(C)CC(=O)N(C)C)c2CC[C@@H]1C` [Example 380] was 1 to 1000 µM; that for `COC(=O)N1c2ccc3c(nc(CCn4ccccc4=O)n3CC(=O)N3CCC(O)CC3)c2CC[C@@H]1C` [Example 381] was 1 to 1000 µM.
`COC(=O)N1c2ccc3c(nc(CCn4ccccc4=O)n3CC(=O)NCC(=O)N(C)C)c2CC[C@@H]1C` [Example 382]: the IC50 was in the range of 1 to 1000 µM.
Regarding `COC(=O)N1c2ccc3c(nc(CCn4ccccc4=O)n3CC(=O)NCC(=O)N3CCCC3)c2CC[C@@H]1C` [Example 383], the IC50 lay in the range of 1 to 1000 µM.
The value for `COC(=O)N1c2ccc3c(nc(CCn4ccccc4=O)n3CC(=O)N(C)C3CCOCC3)c2CC[C@@H]1C` [Example 384] was 1 to 1000 µM; that for `COC(=O)N1c2ccc3c(nc(CCn4ccccc4=O)n3CC(=O)NCC3CCOCC3)c2CC[C@@H]1C` [Example 385] was 1 to 1000 µM.
The figure for `COC(=O)N1c2ccc3c(nc(CCn4ccccc4=O)n3CC(=O)NC3CCOCC3)c2CC[C@@H]1C` [Example 386] is 1 to 1000 µM.
The value for `COC(=O)N1c2ccc3c(nc(CCn4ccccc4=O)n3CC(=O)N(C)[C@H]3CCOC3)c2CC[C@@H]1C` [Example 387] was 1 to 1000 µM; that for `COC(=O)N1c2ccc3c(nc(CCn4ccccc4=O)n3CC(=O)N3CC[C@H](C(N)=O)C3)c2CC[C@@H]1C` [Example 388] was 1 to 1000 µM; that for `COC(=O)N1c2ccc3c(nc(CCn4ccccc4=O)n3CC(=O)N(C)CC(C)(C)O)c2CC[C@@H]1C` [Example 389] was 1 to 1000 µM.
On to `COC(=O)N1c2ccc3c(nc(CCn4ccccc4=O)n3CC(=O)NCC3(O)CCC3)c2CC[C@@H]1C` [Example 390], for which the IC50 is 1 to 1000 µM.
With `COC(=O)N1c2ccc3c(nc(CCn4ccccc4=O)n3CC(=O)NCc3cc(C)no3)c2CC[C@@H]1C` [Example 391], the IC50 lay within 1 to 1000 µM.
`COC(=O)N1c2ccc3c(nc(CCn4ccccc4=O)n3CC(=O)NCC3(C)COC3)c2CC[C@@H]1C` [Example 392]: the IC50 is 1 to 1000 µM.
The value for `COC(=O)N1c2ccc3c(nc(CCn4ccccc4=O)n3CC(=O)NC3COC3)c2CC[C@@H]1C` [Example 393] was 1 to 1000 µM; that for `COC(=O)N1c2ccc3c(nc(CCn4ccccc4=O)n3CC(=O)NCC#N)c2CC[C@@H]1C` [Example 394] was 1 to 1000 µM; that for `COC(=O)N1c2ccc3c(nc(CCn4ccccc4=O)n3CC(=O)NCCN3CCNC3=O)c2CC[C@@H]1C` [Example 395] was 1 to 1000 µM.
In the case of `COC(=O)N1c2ccc3c(nc(CCn4ccccc4=O)n3CC(=O)N3CCC(C#N)CC3)c2CC[C@@H]1C` [Example 396], the IC50 fell in the range of 1 to 1000 µM.
The value for `COC(=O)N1c2ccc3c(nc(CCn4ccccc4=O)n3CC(=O)N3CC[C@@H](NC(C)=O)C3)c2CC[C@@H]1C` [Example 397] was 1 to 1000 µM; that for `COC(=O)N1c2ccc3c(nc(CCn4ccccc4=O)n3CC(=O)N3CC[C@H](NC(C)=O)C3)c2CC[C@@H]1C` [Example 398] was 1 to 1000 µM.
The value for `COC(=O)N1c2ccc3c(nc(CCn4ccccc4=O)n3CC(=O)N3CC[C@H](O)C3)c2CC[C@@H]1C` [Example 399] was 1 to 1000 µM.
`COC(=O)N1c2ccc3c(nc(CCn4ccccc4=O)n3CC(=O)N3CCNC(=O)C3)c2CC[C@@H]1C` [Example 400]: the IC50 is 1 to 1000 µM.
The figure for `COC(=O)N1c2ccc3c(nc(CCn4ccccc4=O)n3CC(=O)N3CCC(F)(F)C3)c2CC[C@@H]1C` [Example 401] is 1 to 1000 µM; for `COC(=O)N1c2ccc3c(nc(CCn4ccccc4=O)n3CC(=O)N3CCn4ccnc4C3)c2CC[C@@H]1C` [Example 402] it is 1 to 1000 µM; for `COC(=O)N1c2ccc3c(nc(CCn4ccccc4=O)n3CC(=O)Nc3ccn[nH]3)c2CC[C@@H]1C` [Example 403] it is 1 to 1000 µM.
The figure for `COC(=O)N1c2ccc3c(nc(CC(C(=O)O)c4ccccc4)n3C3CCCC(OC)C3)c2CC[C@@H]1C` (stereo partly shown) [Example 404] is 1 to 1000 µM; for `COC(=O)N1c2ccc3c(nc(C(C)Cc4ccc(F)c(F)c4)n3C3CCCC(C(=O)O)C3)c2CC[C@@H]1C` (stereo partly shown) [Example 405] it is 1 to 1000 µM; for `COC(=O)N1c2ccc3c(nc(CC(C(=O)O)c4ccc(C)c(F)c4)n3C3CCCOC3)c2CC[C@@H]1C` (stereo partly shown) [Example 407] it is 1 to 1000 µM.
The value for `COC(=O)N1c2ccc3c(nc(C(O)c4ccc(F)c(F)c4)n3C3CCCC(C(=O)O)C3)c2CC[C@@H]1C` (stereo partly shown) [Example 432] was 1 to 1000 µM.
As for `COC(=O)N1c2ccc3c(nc(C(C)Cn4cc(Cl)cn4)n3C3CCCC(C(=O)O)C3)c2CC[C@@H]1C` (stereo partly shown) [Example 443], the IC50 was 1 to 1000 µM.
The figure for `COC(=O)N1c2ccc3c(nc(CC(C(=O)O)c4ccc(C)c(F)c4)n3C3CCCOC3)c2CC[C@@H]1C` (stereo partly shown) [Example 446] is 1 to 1000 µM; for `COC(=O)N1c2ccc3c(nc(CC(C(=O)O)c4ccc(F)c(F)c4)n3C3CCCC3)c2CC[C@@H]1C` (stereo partly shown) [Example 447] it is 1 to 1000 µM.
The value for `COC(=O)N1c2ccc3c(nc(C(O)c4cc(F)ccc4F)n3C3CCCC(C(=O)O)C3)c2CC[C@@H]1C` (stereo partly shown) [Example 449] was 1 to 1000 µM; that for `COC(=O)N1c2ccc3c(nc(CC(C(=O)O)c4ccccc4)n3C3CCCC(OC)C3)c2CC[C@@H]1C` (stereo partly shown) [Example 455] was 1 to 1000 µM.
For `COC(=O)N1c2ccc3c(nc(C(C)Cn4ccc(Cl)n4)n3C3CCCC(C(=O)O)C3)c2CC[C@@H]1C` (stereo partly shown) [Example 459], the IC50 lay within 1 to 1000 µM.
